# Source: ChEMBL document CHEMBL5226314, “Discovery, Structure-Activity Relationship, and Mechanistic Studies of 1-((3R,4S)-3-((Dimethylamino)methyl)-4-hydroxy-4-(3-methoxyphenyl)piperidin-1-yl)-2-(2,4,5-trifluorophenyl)ethan-1-one as a Novel Potent Analgesic” (J Med Chem, 2021)
# Experiments:
# Homo sapiens [1] = organism: Homo sapiens; assay: Selectivity ratio of Ki for DOR (unknown origin) to Ki for MOR (unknown origin)
# [2] = target: Kappa-type opioid receptor (Homo sapiens, UniProt P41145); assay: Displacement of [3H]U69593 from human KOR expressed in CHO cell membranes incubated for 30 mins by liquid scintillation counting method
# [3] = target: Delta-type opioid receptor (Homo sapiens, UniProt P41143); assay: Displacement of [3H]-DPDPE from human DOR expressed in CHO cell membranes measured after 2 hrs by microbeta scintillation counting method
# Mu-type opioid receptor = Mu-type opioid receptor (Mus musculus, UniProt P42866); assay: Displacement of [3H] DAMGO from mouse MOR expressed in CHO cell membrane incubated for 90 mins by scintillation method; format: cell membranes
# Homo sapiens [4] = organism: Homo sapiens; assay: Selectivity ratio of Ki for KOR (unknown origin) to Ki for MOR (unknown origin)
# Mus musculus = assay: Antinociceptive activity in CD-1 mouse at 10 mg/kg, ip; format: functional
# Delta-type opioid receptor, sequence (P41143 whole entry): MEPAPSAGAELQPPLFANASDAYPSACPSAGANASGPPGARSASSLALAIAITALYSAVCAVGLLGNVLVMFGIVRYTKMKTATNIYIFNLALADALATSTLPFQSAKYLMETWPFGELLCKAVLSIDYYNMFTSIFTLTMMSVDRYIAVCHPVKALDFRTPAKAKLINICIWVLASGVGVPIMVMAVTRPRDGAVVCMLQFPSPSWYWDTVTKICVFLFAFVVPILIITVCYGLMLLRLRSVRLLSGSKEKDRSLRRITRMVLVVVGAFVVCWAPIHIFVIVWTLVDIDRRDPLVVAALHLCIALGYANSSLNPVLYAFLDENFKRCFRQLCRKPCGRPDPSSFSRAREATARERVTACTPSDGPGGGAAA
# Mu-type opioid receptor, sequence (P42866 whole entry): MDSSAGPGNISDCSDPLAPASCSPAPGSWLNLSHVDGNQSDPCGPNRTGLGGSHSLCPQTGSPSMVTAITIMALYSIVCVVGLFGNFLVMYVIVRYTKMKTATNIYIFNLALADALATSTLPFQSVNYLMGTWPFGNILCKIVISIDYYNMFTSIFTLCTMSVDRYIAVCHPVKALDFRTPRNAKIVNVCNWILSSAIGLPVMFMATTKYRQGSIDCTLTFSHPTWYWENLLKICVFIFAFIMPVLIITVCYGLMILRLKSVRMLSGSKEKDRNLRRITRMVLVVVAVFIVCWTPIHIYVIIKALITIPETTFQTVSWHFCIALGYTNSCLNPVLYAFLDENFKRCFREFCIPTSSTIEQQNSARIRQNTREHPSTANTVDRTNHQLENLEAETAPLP
# Kappa-type opioid receptor, sequence (P41145 whole entry): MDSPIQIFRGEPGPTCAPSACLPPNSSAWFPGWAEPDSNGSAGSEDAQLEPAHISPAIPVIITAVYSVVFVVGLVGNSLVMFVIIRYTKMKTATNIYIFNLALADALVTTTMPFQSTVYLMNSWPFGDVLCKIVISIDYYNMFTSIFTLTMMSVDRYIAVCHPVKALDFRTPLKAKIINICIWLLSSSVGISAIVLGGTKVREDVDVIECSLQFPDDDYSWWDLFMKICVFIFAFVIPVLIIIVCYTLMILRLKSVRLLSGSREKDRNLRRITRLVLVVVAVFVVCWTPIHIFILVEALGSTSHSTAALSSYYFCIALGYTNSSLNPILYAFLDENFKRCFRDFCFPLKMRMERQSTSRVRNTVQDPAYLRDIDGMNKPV
SMILES,Selectivity ratio (Homo sapiens [1]),Ki [2],Ki [3],Ki (Mu-type opioid receptor),Selectivity ratio (Homo sapiens [4]),MPE (Mus musculus)
CN(C)CC1CN(C(=O)Cc2ccccc2)CCC1(O)c1ccccc1 (stereo not drawn),50.1,1280 nM,1410 nM,28.1 nM,45.4,–
CN(C)CC1CN(C(=O)Cc2ccccc2)CCC1(O)c1cccc(O)c1 (stereo not drawn),49.8,169 nM,298 nM,6 nM,28.2,–
COc1cccc(C2(O)CCN(C(=O)Cc3cccc([N+](=O)[O-])c3)CC2CN(C)C)c1 (stereo not drawn),> 117,–,> 1000 nM,85.6 nM,23.2,72.9%
CN(C)CC1CN(C(=O)Cc2ccccc2OC(F)(F)F)CCC1(O)c1cccc(O)c1 (stereo not drawn),0.5,675 nM,14.1 nM,30.5 nM,22.1,–
CN(C)CC1CN(C(=O)CCc2ccccc2)CCC1(O)c1cccc(O)c1 (stereo not drawn),399,649 nM,280 nM,0.7 nM,927,–
COc1cccc(C2(O)CCN(C(=O)Cc3cc(C(F)(F)F)cc(C(F)(F)F)c3)CC2CN(C)C)c1 (stereo not drawn),73.6,–,–,25.3 nM,175,17.8%
COc1cccc(C2(O)CCN(C(=O)Cc3ccc(Cl)c(Cl)c3)CC2CN(C)C)c1 (stereo not drawn),11.6,–,–,69.2 nM,4.2,70.7%
COc1cccc(C2(O)CCN(C(=O)Cc3cccc4ccccc34)CC2CN(C)C)c1 (stereo not drawn),6.1,–,–,353 nM,4.8,78.7%
COc1cccc(C2(O)CCN(C(=O)Cn3ccc4ccccc43)CC2CN(C)C)c1 (stereo not drawn),16.1,–,–,72.9 nM,55.6,54.2%
CN(C)CC1CN(C(=O)Cc2cccc(F)c2)CCC1(O)c1cccc(O)c1 (stereo not drawn),57.4,169 nM,126 nM,2.2 nM,77,–
COc1cccc(C2(O)CCN(C(=O)Cc3cccc(Cl)c3)CC2CN(C)C)c1 (stereo not drawn),67.6,–,–,24.2 nM,41.7,86.4%
COc1cccc(C2(O)CCN(C(=O)C3(c4ccccc4)CCC3)CC2CN(C)C)c1 (stereo not drawn),3.2,–,–,225 nM,0.9,5%
COc1cccc(C2(O)CCN(C(=O)Cc3c[nH]c4ccccc34)CC2CN(C)C)c1 (stereo not drawn),> 43.3,–,> 5000 nM,115 nM,26.8,67%
Cc1cccc(CC(=O)N2CCC(O)(c3cccc(O)c3)C(CN(C)C)C2)c1 (stereo not drawn),5.8,74.4 nM,56.6 nM,9.8 nM,7.6,–
Cc1ccccc1CC(=O)N1CCC(O)(c2cccc(O)c2)C(CN(C)C)C1 (stereo not drawn),20.4,227 nM,310 nM,15.2 nM,15,–
COc1cccc(C2(O)CCN(C(=O)Cc3cccc(F)c3)CC2CN(C)C)c1 (stereo not drawn),29,–,–,82.3 nM,28.6,88.4%
CN(C)CC1CN(C(=O)Cc2cccc(OC(F)(F)F)c2)CCC1(O)c1cccc(O)c1 (stereo not drawn),15.9,94.2 nM,44.5 nM,2.8 nM,33.6,–
CN(C)CC1CN(C(=O)Cc2ccc(OC(F)(F)F)cc2)CCC1(O)c1cccc(O)c1 (stereo not drawn),7.4,93.6 nM,333 nM,45 nM,2.1,–
CN(C)CC1CN(C(=O)CCc2ccccc2C(F)(F)F)CCC1(O)c1cccc(O)c1 (stereo not drawn),48.9,164 nM,191 nM,3.9 nM,42,–
COc1cccc(C2(O)CCN(C(=O)Cc3ccc4ccccc4c3)CC2CN(C)C)c1 (stereo not drawn),> 122,–,> 1000 nM,81.6 nM,32.5,0%
